Experimental data reported in ChEMBL document CHEMBL4507292 (2021).

How the values were obtained:
D(1B) dopamine receptor = D(1B) dopamine receptor (Homo sapiens, UniProt P21918); assay: GPCRScan assay: inhibition of D5; design: radioligand conc. used [nm] 2.0 – 3.0, parental cells HEKT
[1] = molecular target: Alpha-1B adrenergic receptor (Homo sapiens, UniProt P35368); assay: GPCRScan assay: inhibition of Alpha1B; design: radioligand conc. used [nm] 0.3 – 1.0, parental cells stable HEK
[2] = system: Tyrosine-protein kinase ABL1 (Homo sapiens), P00519 [T315I]; settings: Compound concentration 1000.0 nM
[3] = molecular target: Activin receptor type-1 (Homo sapiens) (UniProt Q04771); settings: Compound concentration 1000.0 nM
[4] = molecular target: ALK tyrosine kinase receptor (Homo sapiens) (UniProt Q9UM73); settings: Compound concentration 1000.0 nM
[5] = molecular target: Aurora kinase C (Homo sapiens) (UniProt Q9UQB9); settings: Compound concentration 1000.0 nM
[6] = molecular target: Serine/threonine-protein kinase BRSK1 (Homo sapiens) (UniProt Q8TDC3); settings: Compound concentration 1000.0 nM
[7] = molecular target: Tyrosine-protein kinase BTK (Homo sapiens) (UniProt Q06187); settings: Compound concentration 1000.0 nM
[8] = molecular target: Calcium/calmodulin-dependent protein kinase type II subunit beta (Homo sapiens) (UniProt Q13554); settings: Compound concentration 1000.0 nM
[9] = molecular target: Casein kinase II subunit alpha (Homo sapiens) (UniProt P68400); settings: Compound concentration 1000.0 nM
[10] = molecular target: Megakaryocyte-associated tyrosine-protein kinase (Homo sapiens) (UniProt P42679); settings: Compound concentration 1000.0 nM
[11] = molecular target: Death-associated protein kinase 3 (Homo sapiens) (UniProt O43293); settings: Compound concentration 1000.0 nM
[12] = molecular target: Epidermal growth factor receptor (Homo sapiens, UniProt P00533); settings: Compound concentration 1000.0 nM
[13] = system: Epidermal growth factor receptor (Homo sapiens), P00533 [G719S]; settings: Compound concentration 1000.0 nM
[14] = molecular target: Ephrin type-B receptor 2 (Homo sapiens) (UniProt P29323); settings: Compound concentration 1000.0 nM
[15] = molecular target: Ephrin type-B receptor 3 (Homo sapiens) (UniProt P54753); settings: Compound concentration 1000.0 nM
[16] = molecular target: Tyrosine-protein kinase Fes/Fps (Homo sapiens) (UniProt P07332); settings: Compound concentration 1000.0 nM
[17] = molecular target: Fibroblast growth factor receptor 4 (Homo sapiens) (UniProt P22455); settings: Compound concentration 1000.0 nM
[18] = molecular target: Cyclin-G-associated kinase (Homo sapiens) (UniProt O14976); settings: Compound concentration 1000.0 nM
[19] = system: eIF-2-alpha kinase GCN2 (Homo sapiens), Q9P2K8 [S808G]; settings: Compound concentration 1000.0 nM
[20] = molecular target: Beta-adrenergic receptor kinase 1 (Homo sapiens) (UniProt P25098); settings: Compound concentration 1000.0 nM
[21] = molecular target: Tyrosine-protein kinase JAK2 (Homo sapiens) (UniProt O60674); settings: Compound concentration 1000.0 nM
[22] = molecular target: Mitogen-activated protein kinase kinase kinase kinase 4 (Homo sapiens) (UniProt O95819); settings: Compound concentration 1000.0 nM
[23] = molecular target: Mitogen-activated protein kinase kinase kinase kinase 5 (Homo sapiens) (UniProt Q9Y4K4); settings: Compound concentration 1000.0 nM
[24] = molecular target: MAP kinase-activated protein kinase 2 (Homo sapiens) (UniProt P49137); settings: Compound concentration 1000.0 nM
[25] = molecular target: Microtubule-associated serine/threonine-protein kinase 1 (Homo sapiens) (UniProt Q9Y2H9); settings: Compound concentration 1000.0 nM
[26] = molecular target: Dual specificity mitogen-activated protein kinase kinase 4 (Homo sapiens) (UniProt P45985); settings: Compound concentration 1000.0 nM
[27] = system: Hepatocyte growth factor receptor (Homo sapiens), P08581 [M1250T]; settings: Compound concentration 1000.0 nM
[28] = molecular target: Mitogen-activated protein kinase kinase kinase 11 (Homo sapiens) (UniProt Q16584); settings: Compound concentration 1000.0 nM
[29] = molecular target: Serine/threonine-protein kinase MRCK alpha (Homo sapiens) (UniProt Q5VT25); settings: Compound concentration 1000.0 nM
[30] = molecular target: Mitogen-activated protein kinase 12 (Homo sapiens) (UniProt P53778); settings: Compound concentration 1000.0 nM
[31] = molecular target: Cyclin-dependent kinase 16 (Homo sapiens) (UniProt Q00536); settings: Compound concentration 1000.0 nM
[32] = molecular target: Phosphatidylinositol 3-kinase C2 domain-containing subunit gamma (Homo sapiens) (UniProt O75747); settings: Compound concentration 1000.0 nM
[33] = system: Phosphatidylinositol 4,5-bisphosphate 3-kinase catalytic subunit alpha isoform (Homo sapiens), P42336 [H1047Y]; settings: Compound concentration 1000.0 nM
[34] = molecular target: Phosphatidylinositol 5-phosphate 4-kinase type-2 gamma (Homo sapiens) (UniProt Q8TBX8); settings: Compound concentration 1000.0 nM
[35] = molecular target: Ribosomal protein S6 kinase alpha-3 (Homo sapiens) (UniProt P51812); settings: Compound concentration 1000.0 nM
[36] = molecular target: Serine/threonine-protein kinase SIK1 (Homo sapiens) (UniProt P57059); settings: Compound concentration 1000.0 nM
[37] = molecular target: SRSF protein kinase 2 (Homo sapiens) (UniProt P78362); settings: Compound concentration 1000.0 nM
[38] = molecular target: STE20/SPS1-related proline-alanine-rich protein kinase (Homo sapiens) (UniProt Q9UEW8); settings: Compound concentration 1000.0 nM
[39] = molecular target: Activated CDC42 kinase 1 (Homo sapiens) (UniProt Q07912); settings: Compound concentration 1000.0 nM
[40] = molecular target: Serine/threonine-protein kinase ULK1 (Homo sapiens) (UniProt O75385); settings: Compound concentration 1000.0 nM
[41] = molecular target: Serine/threonine-protein kinase 25 (Homo sapiens) (UniProt O00506); settings: Compound concentration 1000.0 nM
[42] = molecular target: Delta-type opioid receptor (Homo sapiens) (UniProt P41143); settings: Compound concentration 10.0 uM
[43] = molecular target: GABA-A receptor; anion channel (Rattus norvegicus) (UniProt O09028+P15431+P18506+P18508+P19969+P20236+P23574+P23576+P28471+P28473+P30191+P62813+P63079+P63138+Q91ZM7+Q9ES14); settings: Compound concentration 10.0 uM

Chain of Serine/threonine-protein kinase 25 (Homo sapiens) (O00506 whole entry, looked up): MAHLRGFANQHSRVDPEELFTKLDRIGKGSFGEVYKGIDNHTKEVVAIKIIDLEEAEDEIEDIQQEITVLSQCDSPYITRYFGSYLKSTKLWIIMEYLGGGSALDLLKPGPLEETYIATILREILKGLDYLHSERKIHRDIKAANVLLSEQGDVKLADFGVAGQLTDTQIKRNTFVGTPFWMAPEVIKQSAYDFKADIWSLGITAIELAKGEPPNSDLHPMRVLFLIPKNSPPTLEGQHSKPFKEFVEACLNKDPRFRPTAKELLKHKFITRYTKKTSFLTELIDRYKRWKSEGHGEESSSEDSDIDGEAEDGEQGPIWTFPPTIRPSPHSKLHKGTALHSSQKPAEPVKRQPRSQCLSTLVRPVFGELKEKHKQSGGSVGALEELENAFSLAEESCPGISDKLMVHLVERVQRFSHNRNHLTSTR
Chain of MAP kinase-activated protein kinase 2 (Homo sapiens) (P49137 whole entry, looked up): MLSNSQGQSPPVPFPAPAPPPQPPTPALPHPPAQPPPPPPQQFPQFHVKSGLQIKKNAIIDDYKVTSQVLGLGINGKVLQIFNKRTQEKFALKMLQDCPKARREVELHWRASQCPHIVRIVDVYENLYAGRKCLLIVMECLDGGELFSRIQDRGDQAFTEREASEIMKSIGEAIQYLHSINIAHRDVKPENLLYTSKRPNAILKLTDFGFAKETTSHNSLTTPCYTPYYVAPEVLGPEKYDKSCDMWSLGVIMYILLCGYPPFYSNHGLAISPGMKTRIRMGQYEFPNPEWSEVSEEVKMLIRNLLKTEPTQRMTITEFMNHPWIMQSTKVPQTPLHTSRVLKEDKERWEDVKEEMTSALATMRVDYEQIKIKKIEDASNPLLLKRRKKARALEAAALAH
Chain of Ephrin type-B receptor 3 (Homo sapiens) (P54753 whole entry): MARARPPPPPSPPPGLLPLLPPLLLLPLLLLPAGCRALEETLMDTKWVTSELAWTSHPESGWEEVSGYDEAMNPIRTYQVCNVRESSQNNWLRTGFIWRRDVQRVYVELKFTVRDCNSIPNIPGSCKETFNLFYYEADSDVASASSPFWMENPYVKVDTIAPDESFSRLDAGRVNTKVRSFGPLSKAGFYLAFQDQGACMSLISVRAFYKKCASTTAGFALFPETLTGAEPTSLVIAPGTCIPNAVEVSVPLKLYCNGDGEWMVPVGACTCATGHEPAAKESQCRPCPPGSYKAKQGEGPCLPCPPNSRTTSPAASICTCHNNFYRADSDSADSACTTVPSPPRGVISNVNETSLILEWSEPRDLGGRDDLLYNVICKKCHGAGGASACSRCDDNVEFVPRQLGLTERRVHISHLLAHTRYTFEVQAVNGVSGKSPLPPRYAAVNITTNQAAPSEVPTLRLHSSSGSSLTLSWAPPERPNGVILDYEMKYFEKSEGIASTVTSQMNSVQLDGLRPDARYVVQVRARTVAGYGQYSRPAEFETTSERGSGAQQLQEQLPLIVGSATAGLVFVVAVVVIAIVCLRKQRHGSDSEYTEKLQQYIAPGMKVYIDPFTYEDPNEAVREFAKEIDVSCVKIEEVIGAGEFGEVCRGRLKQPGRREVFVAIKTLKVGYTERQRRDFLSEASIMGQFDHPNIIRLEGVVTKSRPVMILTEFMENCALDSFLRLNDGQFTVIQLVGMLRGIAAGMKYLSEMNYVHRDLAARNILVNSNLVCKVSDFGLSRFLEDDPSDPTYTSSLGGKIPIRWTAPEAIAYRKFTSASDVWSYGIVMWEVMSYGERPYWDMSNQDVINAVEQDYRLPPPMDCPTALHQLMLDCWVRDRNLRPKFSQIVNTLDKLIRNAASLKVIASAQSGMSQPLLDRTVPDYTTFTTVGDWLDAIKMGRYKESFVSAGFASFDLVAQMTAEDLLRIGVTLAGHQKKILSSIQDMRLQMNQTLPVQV
Chain of Fibroblast growth factor receptor 4 (Homo sapiens) (P22455 22-802 limits assumed): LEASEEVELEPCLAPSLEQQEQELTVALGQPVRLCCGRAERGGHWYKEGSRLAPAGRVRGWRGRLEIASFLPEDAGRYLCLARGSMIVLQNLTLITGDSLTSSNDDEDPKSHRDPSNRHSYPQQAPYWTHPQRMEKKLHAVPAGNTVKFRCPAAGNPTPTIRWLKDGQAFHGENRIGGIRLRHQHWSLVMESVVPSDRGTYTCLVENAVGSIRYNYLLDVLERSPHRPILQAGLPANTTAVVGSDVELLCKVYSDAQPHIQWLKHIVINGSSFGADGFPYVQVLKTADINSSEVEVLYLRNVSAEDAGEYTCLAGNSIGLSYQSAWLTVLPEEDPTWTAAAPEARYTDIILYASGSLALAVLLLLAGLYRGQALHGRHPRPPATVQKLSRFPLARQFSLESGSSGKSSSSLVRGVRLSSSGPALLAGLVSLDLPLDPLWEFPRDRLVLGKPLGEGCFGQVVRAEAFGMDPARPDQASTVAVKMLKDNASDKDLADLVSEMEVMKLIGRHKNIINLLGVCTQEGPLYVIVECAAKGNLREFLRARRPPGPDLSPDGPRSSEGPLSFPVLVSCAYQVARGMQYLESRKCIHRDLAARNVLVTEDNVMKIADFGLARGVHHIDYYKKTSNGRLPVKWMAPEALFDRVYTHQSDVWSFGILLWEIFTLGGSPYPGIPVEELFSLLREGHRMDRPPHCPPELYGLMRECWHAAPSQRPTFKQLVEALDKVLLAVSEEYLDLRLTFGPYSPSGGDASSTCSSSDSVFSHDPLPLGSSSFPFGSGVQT
Chain of eIF-2-alpha kinase GCN2 (Homo sapiens), Q9P2K8 [S808G] (Q9P2K8 whole entry S808G): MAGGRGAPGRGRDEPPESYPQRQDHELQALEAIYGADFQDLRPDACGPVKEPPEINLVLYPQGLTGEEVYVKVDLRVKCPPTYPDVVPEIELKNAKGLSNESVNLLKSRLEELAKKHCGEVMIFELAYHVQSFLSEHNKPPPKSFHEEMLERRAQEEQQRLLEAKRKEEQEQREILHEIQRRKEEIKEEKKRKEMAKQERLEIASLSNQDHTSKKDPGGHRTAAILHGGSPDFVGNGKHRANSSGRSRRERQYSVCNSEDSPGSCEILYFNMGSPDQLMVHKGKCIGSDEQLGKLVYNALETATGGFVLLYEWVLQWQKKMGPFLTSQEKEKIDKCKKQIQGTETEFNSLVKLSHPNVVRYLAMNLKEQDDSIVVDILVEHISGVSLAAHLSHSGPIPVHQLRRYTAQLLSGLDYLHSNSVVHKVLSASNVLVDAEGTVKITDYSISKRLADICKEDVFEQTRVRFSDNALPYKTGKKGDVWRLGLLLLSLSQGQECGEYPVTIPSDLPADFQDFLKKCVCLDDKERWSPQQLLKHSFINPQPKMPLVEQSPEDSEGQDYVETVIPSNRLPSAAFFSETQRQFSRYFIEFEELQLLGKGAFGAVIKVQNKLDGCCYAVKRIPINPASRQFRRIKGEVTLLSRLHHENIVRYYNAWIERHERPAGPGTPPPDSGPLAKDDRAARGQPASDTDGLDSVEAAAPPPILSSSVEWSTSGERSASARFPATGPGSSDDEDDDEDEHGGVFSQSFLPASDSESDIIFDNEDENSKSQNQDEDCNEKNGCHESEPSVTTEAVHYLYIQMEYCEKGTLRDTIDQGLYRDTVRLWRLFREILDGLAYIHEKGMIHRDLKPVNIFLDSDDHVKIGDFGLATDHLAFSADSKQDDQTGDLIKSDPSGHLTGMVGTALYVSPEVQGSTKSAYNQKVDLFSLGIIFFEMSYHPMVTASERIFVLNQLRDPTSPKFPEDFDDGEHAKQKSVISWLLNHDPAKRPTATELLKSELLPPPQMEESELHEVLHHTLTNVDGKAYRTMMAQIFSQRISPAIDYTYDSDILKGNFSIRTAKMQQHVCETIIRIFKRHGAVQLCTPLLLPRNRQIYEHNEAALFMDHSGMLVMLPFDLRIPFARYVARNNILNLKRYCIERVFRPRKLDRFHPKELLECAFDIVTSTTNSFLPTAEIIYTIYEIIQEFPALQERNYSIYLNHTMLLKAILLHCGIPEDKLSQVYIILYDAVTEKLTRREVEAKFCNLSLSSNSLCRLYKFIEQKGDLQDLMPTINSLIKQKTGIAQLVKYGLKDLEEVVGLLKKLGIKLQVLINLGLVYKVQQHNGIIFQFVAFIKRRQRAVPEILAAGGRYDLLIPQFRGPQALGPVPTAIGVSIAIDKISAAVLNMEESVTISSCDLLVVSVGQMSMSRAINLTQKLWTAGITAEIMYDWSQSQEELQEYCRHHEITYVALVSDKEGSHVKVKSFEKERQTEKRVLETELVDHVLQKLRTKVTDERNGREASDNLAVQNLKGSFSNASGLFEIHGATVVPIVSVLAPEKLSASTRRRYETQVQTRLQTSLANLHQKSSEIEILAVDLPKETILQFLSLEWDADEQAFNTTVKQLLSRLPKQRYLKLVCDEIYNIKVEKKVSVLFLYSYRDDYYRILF
Chain of Mitogen-activated protein kinase kinase kinase kinase 5 (Homo sapiens) (Q9Y4K4 whole entry, looked up): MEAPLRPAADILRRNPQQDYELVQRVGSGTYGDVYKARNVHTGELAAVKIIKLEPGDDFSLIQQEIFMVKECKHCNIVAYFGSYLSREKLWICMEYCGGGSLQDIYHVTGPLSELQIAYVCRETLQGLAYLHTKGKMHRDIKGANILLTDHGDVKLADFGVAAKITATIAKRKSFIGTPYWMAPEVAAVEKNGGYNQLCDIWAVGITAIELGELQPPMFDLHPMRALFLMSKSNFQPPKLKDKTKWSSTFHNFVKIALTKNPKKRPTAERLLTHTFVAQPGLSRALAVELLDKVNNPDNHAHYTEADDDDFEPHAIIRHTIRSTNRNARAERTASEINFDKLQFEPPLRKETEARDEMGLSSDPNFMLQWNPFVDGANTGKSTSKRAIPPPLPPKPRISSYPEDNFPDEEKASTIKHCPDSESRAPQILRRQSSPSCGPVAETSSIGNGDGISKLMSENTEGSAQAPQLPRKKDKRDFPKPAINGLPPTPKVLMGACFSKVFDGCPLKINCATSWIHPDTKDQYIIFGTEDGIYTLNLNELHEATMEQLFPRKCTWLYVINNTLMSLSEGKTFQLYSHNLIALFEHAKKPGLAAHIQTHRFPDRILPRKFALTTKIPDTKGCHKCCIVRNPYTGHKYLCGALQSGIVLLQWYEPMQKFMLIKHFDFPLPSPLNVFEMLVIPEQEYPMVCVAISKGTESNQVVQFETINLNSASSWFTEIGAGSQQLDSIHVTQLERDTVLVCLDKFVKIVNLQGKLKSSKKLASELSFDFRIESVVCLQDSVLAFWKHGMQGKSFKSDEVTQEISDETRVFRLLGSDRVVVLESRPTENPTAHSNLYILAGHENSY

Cc1c(C(=O)O)cc(-c2ccc(C3CCNCC3)cc2)c2ccc(-c3ccc(C(F)(F)F)cc3)cc12 [PPTN-NC]
Ki (D(1B) dopamine receptor): 2860 nM | Ki [1]: 3.6 µM | residual activity [2]: 100% | residual activity [3]: 100% | residual activity [4]: 100% | residual activity [5]: 92% | residual activity [6]: 100% | residual activity [7]: 94% | residual activity [8]: 100% | residual activity [9]: 100% | residual activity [10]: 100% | residual activity [11]: 100% | residual activity [12]: 100% | residual activity [13]: 94% | residual activity [14]: 92% | residual activity [15]: 100% | residual activity [16]: 100% | residual activity [17]: 100% | residual activity [18]: 100% | residual activity [19]: 100% | residual activity [20]: 100% | residual activity [21]: 100% | residual activity [22]: 76% | residual activity [23]: 100% | residual activity [24]: 88% | residual activity [25]: 100% | residual activity [26]: 100% | residual activity [27]: 97% | residual activity [28]: 100% | residual activity [29]: 100% | residual activity [30]: 85% | residual activity [31]: 100% | residual activity [32]: 100% | residual activity [33]: 100% | residual activity [34]: 100% | residual activity [35]: 80% | residual activity [36]: 94% | residual activity [37]: 82% | residual activity [38]: 100% | residual activity [39]: 100% | residual activity [40]: 100% | residual activity [41]: 100% | inhibition [42]: 32% | inhibition [43]: 10.6%

O=C(O)c1cc(-c2ccc(C3CCNCC3)cc2)c2ccc(-c3ccc(C(F)(F)F)cc3)cc2c1 [PPTN]
Ki (D(1B) dopamine receptor): 2820 nM | Ki [1]: 3.23 µM | residual activity [2]: 100% | residual activity [3]: 100% | residual activity [4]: 100% | residual activity [5]: 95% | residual activity [6]: 100% | residual activity [7]: 96% | residual activity [8]: 100% | residual activity [9]: 100% | residual activity [10]: 100% | residual activity [11]: 100% | residual activity [12]: 100% | residual activity [13]: 100% | residual activity [14]: 100% | residual activity [15]: 100% | residual activity [16]: 100% | residual activity [17]: 100% | residual activity [18]: 100% | residual activity [19]: 100% | residual activity [20]: 100% | residual activity [21]: 100% | residual activity [22]: 87% | residual activity [23]: 100% | residual activity [24]: 51% | residual activity [25]: 100% | residual activity [26]: 100% | residual activity [27]: 86% | residual activity [28]: 100% | residual activity [29]: 100% | residual activity [30]: 99% | residual activity [31]: 100% | residual activity [32]: 100% | residual activity [33]: 84% | residual activity [34]: 100% | residual activity [35]: 80% | residual activity [36]: 100% | residual activity [37]: 100% | residual activity [38]: 100% | residual activity [39]: 100% | residual activity [40]: 100% | residual activity [41]: 100% | inhibition [42]: 36.4% | inhibition [43]: -3.62%
